Legend:
[1] = Food intake and body weight reduction in DIO mice; assay type: in vivo, C57BL/6 mice; settings: 10 nmol/kg QD
Method: 22 week old DIO male C57BL/6 mice (˜50 g) were injected once every other day (Q2D) subcutaneously with designated GLP-1 polypeptide conjugates (i.e., Molecule 012) for 25 days. Food intake and body weight were measured twice a week and fasting blood glucose was measured once a week. Five animals were used for each treatment group. Body weight and fasting blood glucose was monitored for each individual animal, but food intake for each group animals was measured together. Day 1 and Day 25 are first day and last day of molecule dosage. Data are indicated as mean values and standard error (SEM) or pooled values. Statistical analysis was performed by One-way ANOVA. Body weight reduction on Day 25 is calculated by −1*(% BW loss−% BW loss of vehicle group); Cumulative food intake reduction is calculated by −100*(cumulative food intake−cumulative food intake of vehicle)/cumulative food intake of vehicle.

human beta-Klotho = molecular target: T1, human beta-Klotho (Homo sapiens, UniProt Q86Z14); experiment: In vitro FGF21 activity, p-ERK levels in HEK293 cell line overexpressing human beta-Klotho; assay type: cell-based; settings: compared with YH-dual
T1 construct: expressed in transfected cells; host or cells: HEK293 cell line
Method: The in vitro FGF21 activities of the fusion protein were assessed using a HEK293 cell line overexpressing human beta-Klotho. Tested fusion protein conjugates were measured at 400 nM top concentration with 4-fold serial dilutions in the presence of 1% HSA. After cells were treated with fusion protein conjugates for 12 mins, p-ERK levels were measured by p-ERK kit (Cisbio, 64ERKPEH).
The activity of each fusion protein was represented by EC50, derived from non-linear regression analysis.

[2] = Metabolic parameters in DIO animal model, 21 days; assay type: in vivo, C57BL/6 mice; settings: DIO mice, QD subcutaneously, FIG. 4B
Method: 16 week old DIO male C57BL/6 mice (35˜40 g) were injected once daily (QD) subcutaneously with designated GLP-1/FGF21 conjugates (i.e., MLC #9, MLC #14, MLC #16 and MLC #17) for 21 days. Food intake and body weight were measured once everyday and non-fasting blood glucose was measured once every three days. Five animals were used for each treatment group. Body weight and blood glucose was monitored for each individual animal, but food intake for each group of animals was measured together. Day 1 and Day 21 are first day and last day respectively of the treatment. Terminal blood was collected and EDTA-K3 plasma was prepared and frozen at −80° C. for biomarker measurement (LDL-C, TC, TG, ALT, insulin, adiponectin). Liver and adipose tissue were also collected and frozen in liquid nitrogen and store at −80° C. Data are indicated as mean values and standard error (SEM) or pooled values. Statistical analysis was performed by One-way ANOVA. Body weight reduction on Day 21 is calculated by −1*(% BW loss−% BW loss of vehicle group); Cumulative food intake reduction is calculated by −100*(cumulative food intake−cumulative food intake of vehicle)/cumulative food intake of vehicle.

Substance	Body weight reduction (% reduction compared to vehicle) (Day 11) [1] [%]	Cumulative food intake reduction (% reduction compared to vehicle) (Day 11) [1] [%]	FGF21 efficacy (FIGS. 2A and 2B) (human beta-Klotho)	non-fasting glucose level [2] [mmol/L]
Control#2: GLP1(del7-8, 22E, 36G)-(GAQP)5-ALB8-(GAQP)10-FGF21 (121Q, 168L, 171G, 180E), SEQ ID NO: 72, GLP1 dead [reference compound]	21.7	19.1	–	–
Control#6: GLP1(del7-8, 22E, 36G)-(GAQP)5-ALB8-(GAQP)-FGF21 (121Q, 168L, 171G, 180E), SEQ ID NO: 78, GLP1 dead [reference compound]	24.6	13.1	significantly higher FGF21 efficacy than YH-dual	–
Semaglutide [reference compound]	–	–	–	7.5 to 10

Source: patent publication US12331093B2, “Fusion polypeptides for metabolic disorders” (BEIJING QL BIOPHARMACEUTICAL CO., LTD., priority 2021, dated 2025)
